Data published in EP0929311B1, “INHIBITION OF APOPTOSIS USING INTERLEUKIN-1 beta-CONVERTING ENZYME (ICE)/CED-3 FAMILY INHIBITORS” (Idun Pharmaceuticals, Inc., priority 1996, dated 1998).
Residues, ends and D or L forms follow the SMILES beside them. *: point of attachment. Cbz = O=C(OCc1ccccc1)*; CH2F = FC*

System: granulocytes
Test: Granulocyte/neutrophil survival in culture, hypodiploid nuclei by propidium iodide flow cytometry
Assay type: cell-based
Conditions: at 48 hours; granulocytes cultured at 37°C, hypodiploid DNA
Method: Whole blood anticoagulated with Acid Citrate Dextrose (ACD) with a ratio of 1:5 ACD to blood was collected (~100 ml).
Using polypropylene plastic ware, neutrophils are isolated as follows: • 30 ml of the whole blood is added to 50 ml polypropylene centrifuge tubes containing 15 ml of 6% Dextran (in Saline). The blood is allowed to sediment for approximately 1 hour at room temperature.
The turbid straw colored layer harvested from the top of the cylinders into 50 ml conical polypropylene tubes. The blood cells were pelleted by centrifugation at 240 xg (Sorvall centrifuge at 1200 rpm) for 12 min. at 4°C with the brake on low. […]
The supernatant was aspirated and the neutrophil pellet resuspended in 4.0 ml cold PBS (w/o Ca, Mg) on ice. 10 µl of the neutrophil cell suspension was diluted with 990 µl of Trypan blue (1:100) and cells counted using a hemacytometer. The cell number and viability were determined. […]
Neutrophils were resuspended in hypotonic fluorochrome solution at a density of 5×10^6 cells/ml. Propidium iodide fluorescence of individual nuclei was evaluated in FL2 and measured on a logarithmic scale while gating on physical parameters in forward and side scatter to exlude cell debris.
At least 10,000 events per sample were collected and the results were evaluated relative to a non-apoptotic neutrophil population. […]

Compound: COC(=O)C[C@H](NC(=O)[C@H](C)NC(=O)[C@@H](NC(=O)OCc1ccccc1)C(C)C)C(=O)CF [zVADfmk] (Cbz-Val-Ala-Asp(OMe)-CH2F)
- effect on improving granulocyte survival: weak effect
